Columns and labels:
[1] = biological target: T1, influenza A virus (IAV) PA-Nter fragment (amino acids 1-209) (Influenza A virus, UniProt P31343); test: FRET endonuclease activity assay; assay type: biochemical; conditions: PA-Nter 0.5 μM, 1.6 μM RNA substrate
T1 construct: PA-Nter fragment (amino acids 1-209); made in house

[2] = tested on: influenza A virus A/Aichi/2/68 (H3N2) on MDCK cells; test: Cytopathic effect (CPE) assay; assay type: cell-based; conditions: Influenza A virus, 48 hrs, the 1st table

Row | Structure (SMILES) | IC50 [1] [nM] | IC50 [2] [nM] | FRET IC50 [1]
1 | CN1CCn2c(CNS(=O)(=O)c3ccccc3)cc(=O)c(O)c2C1=O | 27 | > 50000 | 
2 | CN1CCn2c(CNS(=O)(=O)c3ccc(Cl)cc3)cc(=O)c(O)c2C1=O | 130 | > 50000 | 
3 | Cc1ccccc1S(=O)(=O)NCc1cc(=O)c(O)c2n1CCN(C)C2=O | 48 | > 50000 | 
4 | CN1CCn2c(CNS(=O)(=O)c3cccc(Cl)c3)cc(=O)c(O)c2C1=O | 82 | > 50000 | 
5 | CC(C)N1CCn2c(CNS(=O)(=O)c3ccccc3)cc(=O)c(O)c2C1=O | 130 | > 50000 | 
6 | CC(C)N1CCn2c(CNS(=O)(=O)c3ccccc3Cl)cc(=O)c(O)c2C1=O | 87 | > 50000 | 
7 | CC(C)N1CCn2c(CNS(=O)(=O)c3cccc(Cl)c3)cc(=O)c(O)c2C1=O | 62 | > 50000 | 
8 | CC(C)N1CCn2c(CNS(=O)(=O)c3ccc(Cl)cc3)cc(=O)c(O)c2C1=O | 209 | > 50000 | 
9 | CC(C)N1CCn2c(CNS(=O)(=O)c3cccc(F)c3)cc(=O)c(O)c2C1=O | 153 | > 50000 | 
10 | CC(C)N1CCn2c(CNS(=O)(=O)c3ccccc3F)cc(=O)c(O)c2C1=O | 104 | > 50000 | 
11 | CC(C)N1CCn2c(CNS(=O)(=O)c3ccc(C#N)cc3)cc(=O)c(O)c2C1=O | 322 | > 50000 | 
12 | Cc1ccc(S(=O)(=O)NCc2cc(=O)c(O)c3n2CCN(C(C)C)C3=O)cc1 | 203 | > 50000 | 
13 | CC(C)N1CCn2c(CNS(=O)(=O)Cc3ccc(Cl)cc3)cc(=O)c(O)c2C1=O | 603 | > 50000 | 
14 | CC(C)N1CCn2c(CNS(=O)(=O)Cc3ccccc3)cc(=O)c(O)c2C1=O | 187 | > 50000 | 
15 | CC(C)N1CCn2c(CNS(=O)(=O)c3c(Cl)cccc3Cl)cc(=O)c(O)c2C1=O | 119 | > 50000 | 
16 | CC(C)N1CCn2c(CNS(=O)(=O)c3ccc(Cl)cc3F)cc(=O)c(O)c2C1=O | 223 | > 50000 | 
17 | CC(C)N1CCn2c(CNS(=O)(=O)c3ccc(Cl)cc3Cl)cc(=O)c(O)c2C1=O | 144 | > 50000 | 
18 | CC(C)N1CCn2c(CNS(=O)(=O)c3cccc4ccccc34)cc(=O)c(O)c2C1=O | 124 | > 50000 | 
19 | CC(C)N1CCn2c(CNS(=O)(=O)c3cn(C)cn3)cc(=O)c(O)c2C1=O | 260 | > 50000 | 
20 | Cc1noc(C)c1S(=O)(=O)NCc1cc(=O)c(O)c2n1CCN(C(C)C)C2=O | 182 | > 50000 | 

Row | Structure (SMILES) | IC50 [1] [nM] | IC50 [2] [nM] | FRET IC50 [1]
21 | CC(C)N1CCn2c(CNS(=O)(=O)C3CC3)cc(=O)c(O)c2C1=O | 181 | > 50000 | 
22 | CC(C)CS(=O)(=O)NCc1cc(=O)c(O)c2n1CCN(C(C)C)C2=O | 211 | > 50000 | 
23 | CC(C)N1CCn2c(CNS(=O)(=O)N(C)C)cc(=O)c(O)c2C1=O | 90 | > 50000 | 
24 | CC(C)N1CCn2c(CN(C)S(=O)(=O)c3ccccc3)cc(=O)c(O)c2C1=O | 200 | > 50000 | 
25 | CC(C)N1CCn2c(CN(Cc3ccccc3)c3ccccc3)cc(=O)c(O)c2C1=O | 1180 |  | 
26 | CC(C)N1CCn2c(CN(Cc3ccccc3)C(=O)c3ccccc3)cc(=O)c(O)c2C1=O | 315 | > 50000 | 
27 | CC(C)N1CCn2c(CN(Cc3ccccc3)Cc3ccccc3)cc(=O)c(O)c2C1=O | 1550 | > 50000 | 
28 | CCCN(Cc1ccccc1)Cc1cc(=O)c(O)c2n1CCN(C(C)C)C2=O | 390 | > 50000 | 
29 | CC(C)N1CCn2c(CNC(=O)c3ccc(Cl)cc3)cc(=O)c(O)c2C1=O | 245 | > 50000 | 
30 | CC(=O)N(Cc1ccccc1)Cc1cc(=O)c(O)c2n1CCN(C(C)C)C2=O | 44 | > 50000 | 
31 | CC(=O)N(Cc1cc(=O)c(O)c2n1CCN(C(C)C)C2=O)C1CCCCC1 | 48 | > 50000 | 
32 | CC(C)N1CCn2c(CNC3CCCCC3)cc(=O)c(O)c2C1=O | 497 | > 50000 | 
33 | CC(C)N1CCn2c(CN(C(=O)Cc3ccc(F)cc3F)C3CCCCC3)cc(=O)c(O)c2C1=O | 580 | > 50000 | 
34 | CC(C)CC(=O)N(Cc1cc(=O)c(O)c2n1CCN(C(C)C)C2=O)C1CCCCC1 | 469 | > 50000 | 
35 | CCCN(Cc1cc(=O)c(O)c2n1CCN(C(C)C)C2=O)C(C)=O |  | > 50000 | 
36 | CCCN(Cc1cc(=O)c(O)c2n1CCN(C(C)C)C2=O)C(=O)C1CC1 |  | > 50000 | 
37 | CCCN(Cc1cc(=O)c(O)c2n1CCN(C(C)C)C2=O)C(=O)c1ccccc1 |  | > 50000 | 
38 | CCCN(Cc1cc(=O)c(O)c2n1CCN(C(C)C)C2=O)C(=O)C1CCCCC1 |  | > 50000 | 
39 | CC(C)N1CCn2c(CNC(=O)C3CC(F)(F)C3)cc(=O)c(O)c2C1=O |  | > 50000 | 
40 | CC(C)N1CCn2c(CNC3(c4ccccc4)CCCC3)cc(=O)c(O)c2C1=O |  | > 50000 | 

Row | Structure (SMILES) | IC50 [1] [nM] | IC50 [2] [nM] | FRET IC50 [1]
41 | CC(C)N1CCn2c(CN(Cc3cccc4ccccc34)C3CC3)cc(=O)c(O)c2C1=O |  | > 50000 | 
42 | CC(C)N1CCn2c(CN(Cc3ccccc3-c3ccccc3)C3CC3)cc(=O)c(O)c2C1=O |  | > 50000 | 
43 | CC(C)N1CCn2c(CN(C)C)cc(=O)c(O)c2C1=O | 92 | > 50000 | 
44 | CC(C)N1CCn2c(CN)cc(=O)c(O)c2C1=O | 493 | > 50000 | 
45 | CC(C)N1CCn2c(CNC3c4ccccc4CCc4ccccc43)cc(=O)c(O)c2C1=O | 3620 | > 50000 | 
46 | CC(C)N1CCn2c(CNC(c3ccccc3)c3ccccc3)cc(=O)c(O)c2C1=O | 1130 | > 50000 | 
47 | Cc1cccc(C(=O)NCc2cc(=O)c(O)c3n2CCN(C(C)C)C3=O)c1 | 1070 | > 50000 | 
48 | CC(C)N1CCn2c(CNC(=O)c3ccccc3)cc(=O)c(O)c2C1=O |  | > 50000 | insoluble
49 | CC(C)N1CCn2c(CNC(=O)CC3CC3)cc(=O)c(O)c2C1=O | 300 | > 50000 | 
50 | CC(C)N1CCn2c(CNC(=O)CC(F)(F)F)cc(=O)c(O)c2C1=O | 320 | > 50000 | 
51 | CC(C)N1CCn2c(CNC(=O)CCC(F)(F)F)cc(=O)c(O)c2C1=O | 250 | > 50000 | 
52 | CC(C)N1CCn2c(CNC(=O)CC34C[C@H]5C[C@@H](C3)C[C@@H](C4)C5)cc(=O)c(O)c2C1=O | 1680 | > 50000 | 
53 | CC(C)N1CCn2c(CNC(=O)C34CCC(CO)(CC3)CC4)cc(=O)c(O)c2C1=O | 1870 | > 50000 | 
54 | CC(C)N1CCn2c(CNC(=O)C3(c4ccc(Cl)cc4)CCCC3)cc(=O)c(O)c2C1=O | 840 | > 50000 | 
55 | CC(C)N1CCn2c(CNC(=O)c3ccc(C#N)cc3)cc(=O)c(O)c2C1=O | 400 | > 50000 | 
56 | CC(C)N1CCn2c(CNC(=O)c3ccc(C(F)(F)F)cc3)cc(=O)c(O)c2C1=O | 9450 | > 50000 | 
57 | CC(C)N1CCn2c(CNC(=O)[C@]34C[C@H]5C[C@H](C[C@H](C5)C3)C4)cc(=O)c(O)c2C1=O | 1430 | > 50000 | 
58 | CC(C)N1CCn2c(CNC(=O)CC(C)(C)C)cc(=O)c(O)c2C1=O | 380 | > 50000 | 
59 | CC(C)N1CCn2c(CNC(=O)C3CCCCC3)cc(=O)c(O)c2C1=O | 360 | > 50000 | 
60 | CC(C)N1CCn2c(CNC(=O)C3CC3)cc(=O)c(O)c2C1=O | 350 | > 50000 | 

Source: patent publication US20160002226A1, “PYRI[…] AND THEIR USE IN THE TREATMENT, AMELIORATION OR PREVENTION OF INFLUENZA” (F. Hoffmann-La Roche AG, priority 2014, published 2016)
